According to patent EP4603105A1, “PHARMACEUTICAL COMPOSITION CONTAINING CYCLIC COMPOUND HAVING SELECTIVE KRAS INHIBITORY EFFECT AGAINST HRAS AND NRAS” (CHUGAI SEIYAKU KABUSHIKI KAISHA, priority 2022, dated 2024):
Where two headings read alike, the source gives them in different places.

Assays:
[1] = target: GDP-bound KRAS wild-type protein (Homo sapiens, UniProt P01116); assay: Binding to KRAS by surface plasmon resonance (SPR), dissociation constant KD
Method in brief: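 Read-out is KD from 1:1 fitting of single-cycle kinetics sensorgrams, blank-cycle and reference-surface corrected. Proteins were GDP-loaded, biotinylated Avi-fusions freshly captured each cycle at roughly 100–300 RU. Runs were at 30°C in HBS pH 7.4 with MgCl2, GDP and 4% DMSO.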

HRAS wild-type protein = HRAS wild-type protein (Homo sapiens, UniProt P01112); assay: Binding to HRAS by surface plasmon resonance (SPR), KD and KD ratio to KRAS
Method in brief: (§1)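 Captured GDP-RAS (~100–300 RU) was exposed to increasing compound concentrations, 75 s per step, in running buffer with 10 µM GDP, 10 mM MgCl2 and 4% DMSO at pH 7.4.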

[2] = target: GDP-bound NRAS wild-type protein (Homo sapiens, UniProt P01111); assay: Binding to NRAS by surface plasmon resonance (SPR), KD and KD ratio to KRAS
Method in brief: as §1

[3] = tested on: human lung cancer strain NCI-H441; assay: NCI-H441 cell proliferation inhibitory activity (CellTiter-Glo, 4 days); assay type: cell-based; details: read-out: NCl-H441 IC50
Method in brief: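 Step one: dispense the test compound in serial DMSO dilutions. Step three: add the reagent and measure […].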

[4] = ratio of KD for HRAS wild-type protein to KD for KRAS
[5] = ratio of KD for GDP-bound NRAS wild-type protein to KD for KRAS
[6] = Single Cycle Kinetics, 1:1 binding model
[7] = ratio of KD with respect to HRAS wild-type protein to KD with respect to KRAS
[8] = ratio of KD with respect to GDP-bound NRAS wild-type protein to KD with respect to KRAS
[9] = 50% proliferation inhibitory concentration, four days

Sequence of GDP-bound NRAS wild-type protein (P01111 whole entry): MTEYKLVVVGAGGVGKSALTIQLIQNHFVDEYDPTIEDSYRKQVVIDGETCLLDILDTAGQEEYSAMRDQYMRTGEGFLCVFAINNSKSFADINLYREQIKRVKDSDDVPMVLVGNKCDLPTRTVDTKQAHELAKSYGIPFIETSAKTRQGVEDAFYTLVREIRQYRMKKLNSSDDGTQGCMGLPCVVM
Sequence of GDP-bound KRAS wild-type protein (P01116 1-188 isoform P01116-2): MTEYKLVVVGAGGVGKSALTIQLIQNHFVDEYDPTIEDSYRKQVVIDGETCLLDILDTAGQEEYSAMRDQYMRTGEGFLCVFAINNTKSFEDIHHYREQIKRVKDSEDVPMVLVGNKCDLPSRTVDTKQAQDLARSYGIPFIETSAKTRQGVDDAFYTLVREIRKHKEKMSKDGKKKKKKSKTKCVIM
Sequence of HRAS wild-type protein (P01112 whole entry): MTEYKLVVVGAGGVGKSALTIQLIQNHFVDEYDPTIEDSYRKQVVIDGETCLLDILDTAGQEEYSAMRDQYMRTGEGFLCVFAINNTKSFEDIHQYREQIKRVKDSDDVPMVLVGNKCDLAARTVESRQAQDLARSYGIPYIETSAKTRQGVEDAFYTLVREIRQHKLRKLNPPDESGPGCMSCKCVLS

| Structure (SMILES) | Kd ([1]; Single Cycle Kinetics) [nM] | HRAS /KRAS (HRAS wild-type protein; [4]) | NRAS /KRAS [2, 5] | IC50 ([3]; NCI-H441 cells, 4 days) [nM] | Kd [1, 6] [nM] | HRAS /KRAS (HRAS wild-type protein; [7]) | NRAS /KRAS [2, 8] | IC50 [3, 9] [nM] | Kd ([1]; 1:1 binding model) [nM] |
| --- | --- | --- | --- | --- | --- | --- | --- | --- | --- |
| CCC[C@H]1C(=O)N[C@@H]([C@@H](C)CC)C(=O)N(C)CC(=O)N(C)[C@H]2C/C=C\CCN(C2=O)[C@@H](Cc2ccc(C)cc2)C(=O)N(C)CC(=O)N[C@@H](CCc2ccc(C(F)(F)F)c(Cl)c2)C(=O)N2CC3(CC3)C[C@H]2C(=O)N(C)C2(CCC2)C(=O)N(C)[C@@H](C2CCCC2)C(=O)N(C)[C@H](C(=O)N(C)C)CC(=O)N1C [PP3298] | 0.34 | B (a compound having 3 or more and less than 10 is denoted as B) | B (a compound having 3 or more and less than 10 is denoted as B) | 3.4 |  |  |  |  |  |
| CCC[C@H]1C(=O)N[C@@H]([C@@H](C)CC)C(=O)N(C)CC(=O)N(C)[C@H]2C/C=C\CCN(C2=O)[C@@H](Cc2ccc(C)cc2)C(=O)N(C)CC(=O)N[C@@H](CCc2ccc(C(F)(F)F)c(OC)c2)C(=O)N2CC3(CC3)C[C@H]2C(=O)N(C)C2(CCC2)C(=O)N(C)[C@@H](CC(C)(C)C)C(=O)N(C)[C@H](C(=O)N(C)C)CC(=O)N1C [PP3296] | 0.079 | C (A compound having a KD ratio of 0.1 or more and less than 3 is denoted as C) | B (a compound having 3 or more and less than 10 is denoted as B) | 1.4 |  |  |  |  |  |
| CCO[C@@H]1C[C@H]2C(=O)NC3(CCC3)C(=O)N(C)[C@@H](C3CCCC3)C(=O)N(C)[C@H](C(=O)N(C)C)CC(=O)N(C)[C@@H](Cc3ccccc3C#N)C(=O)N[C@@H]([C@@H](C)CC)C(=O)N(C)CC(=O)N(C)[C@H]3CCCCCN(C3=O)[C@@H](Cc3ccc(F)cc3)C(=O)N(C)CC(=O)N[C@@H](CCc3cc(F)c(C(F)(F)F)c(F)c3)C(=O)N2C1 [PP1155] |  |  |  |  | 0.15 | B (a compound having 3 or more and less than 10 is denoted as B) | B (a compound having 3 or more and less than 10 is denoted as B) | 73.1 |  |
| CCO[C@@H]1C[C@H]2C(=O)NC3(CCCC3)C(=O)N(C)[C@@H](C3CCCC3)C(=O)N(C)[C@H](C(=O)N(C)C)CC(=O)N(C)[C@@H](CC3CC3)C(=O)N[C@@H]([C@@H](C)CC)C(=O)N(C)CC(=O)N(C)[C@H]3C[C@@H](C)[C@@H](C)CN(C3=O)[C@@H](Cc3ccc(C(F)(F)F)cc3)C(=O)N(C)CC(=O)N[C@@H](CCc3cc(F)c(C(F)(F)F)c(F)c3)C(=O)N2C1 [PP1356] |  |  |  |  | 0.047 | B (a compound having 3 or more and less than 10 is denoted as B) | B (a compound having 3 or more and less than 10 is denoted as B) | 3.3 |  |
| CCO[C@@H]1C[C@H]2C(=O)NC3(CCC3)C(=O)N(C)[C@@H](C3CCCC3)C(=O)N(C)[C@H](C(=O)N(C)C)CC(=O)N(C)[C@@H](C)C(=O)N[C@@H]([C@@H](C)CC)C(=O)N(C)CC(=O)N(C)[C@H]3CCCCCN(C3=O)[C@@H](Cc3ccc(F)cc3)C(=O)N(C)CC(=O)N[C@@H](CCc3cc(F)c(C(F)(F)F)c(F)c3)C(=O)N2C1 [PP1189] |  |  |  |  | 0.066 | B (a compound having 3 or more and less than 10 is denoted as B) | B (a compound having 3 or more and less than 10 is denoted as B) | 16.1 |  |
| CCCOC[C@H]1C(=O)N[C@@H]([C@@H](C)CC)C(=O)N(C)CC(=O)N(C)[C@H]2C/C=C\CCN(C2=O)[C@@H](Cc2ccc(C(F)(F)F)cc2)C(=O)N(C)CC(=O)N[C@@H](CCc2cc(F)c(C(F)(F)F)c(F)c2)C(=O)N2C[C@H](OCC)C[C@H]2C(=O)NC2(CCCC2)C(=O)N(C)[C@@H](C2CCCC2)C(=O)N(C)[C@H](C(=O)N2CCCC2)CC(=O)N1C [PP1399] |  |  |  |  | 0.19 | A (a compound having 10 or more and less than 20 is denoted as A) | A (a compound having 10 or more and less than 20 is denoted as A) | 18.8 |  |
| CC[C@H](C)[C@@H]1NC(=O)[C@H](CC(C)C)N(C)C(=O)C[C@@H](C(=O)N2CCOCC2)N(C)C(=O)[C@H](C2CCCC2)N(C)C(=O)C2(CCC2)NC(=O)[C@@H]2C[C@@H](OCC(C)C)CN2C(=O)[C@H](CCc2cc(F)c(C(F)(F)F)c(F)c2)NC(=O)CN(C)C(=O)[C@H](Cc2ccc(C(F)(F)F)cc2)N2CCCC[C@@H](C2=O)N(C)C(=O)CN(C)C1=O [PP1160] |  |  |  |  | 0.032 | B (a compound having 3 or more and less than 10 is denoted as B) | B (a compound having 3 or more and less than 10 is denoted as B) | 18.4 |  |
| CC[C@H](C)[C@@H]1NC(=O)[C@H](CC)N(C)C(=O)C[C@@H](C(=O)N2CCOCC2)N(C)C(=O)[C@H](C2CCCC2)N(C)C(=O)C2(CCCC2)NC(=O)[C@@H]2CCCN2C(=O)[C@H](CCc2cc(F)c(C(F)(F)F)c(F)c2)NC(=O)CN(C)C(=O)[C@H](Cc2ccc(C(F)(F)F)cc2)N2C[C@H](C)[C@H](C)C[C@@H](C2=O)N(C)C(=O)CN(C)C1=O [PP1365] |  |  |  |  | 0.13 | B (a compound having 3 or more and less than 10 is denoted as B) | A (a compound having 10 or more and less than 20 is denoted as A) | 4.2 |  |
| C=CC[C@H]1C(=O)N(C)[C@H](C(=O)N(C)C)CC(=O)N(C)[C@@H](CC(C)C)C(=O)N[C@@H]([C@@H](C)CC)C(=O)N(C)CC(=O)N(C)[C@H]2C/C=C\CCN(C2=O)[C@@H](Cc2ccc(C)cc2)C(=O)N(C)CC(=O)N[C@@H](CCc2ccc(C(F)(F)F)c(OC)c2)C(=O)N2C[C@H](OCC)C[C@H]2C(=O)N(C)C2(CCC2)C(=O)N1C [PP3344] | 1.4 | B (a compound having 3 or more and less than 10 is denoted as B) | A (a compound having 10 or more and less than 20 is denoted as A) | 54.9 |  |  |  |  |  |
| CC[C@H](C)[C@@H]1NC(=O)[C@H](COC)N(C)C(=O)C[C@@H](C(=O)N(C)C)N(C)C(=O)[C@H](C2CCCC2)N(C)C(=O)C2(CC(C)(C)C2)NC(=O)[C@@H]2C[C@@H](C)CN2C(=O)[C@H](CCc2ccc(C(F)(F)F)c(OC)c2)NC(=O)CN(C)C(=O)[C@H](Cc2ccc(C)cc2)N2CC/C=C\C[C@@H](C2=O)N(C)C(=O)CN(C)C1=O [PP2387] |  | A (a compound having 10 or more and less than 20 is denoted as A) | A (a compound having 10 or more and less than 20 is denoted as A) | 16.5 |  |  |  |  | 0.11 |
| CCOC[C@H]1C(=O)N[C@@H]([C@@H](C)CC)C(=O)N(C)CC(=O)N(C)[C@H]2C/C=C\CCN(C2=O)[C@@H](Cc2ccc(C(F)(F)F)cc2)C(=O)N(C)CC(=O)N[C@@H](CCc2cc(F)c(C(F)(F)F)c(F)c2)C(=O)N2C[C@H](OCC)C[C@H]2C(=O)NC2(CCC2)C(=O)N(C)[C@@H](C2CCCC2)C(=O)N(C)[C@H](C(=O)N(C)C)CC(=O)N1C [PP1266] |  |  |  |  | 0.045 | A (a compound having 10 or more and less than 20 is denoted as A) | A (a compound having 10 or more and less than 20 is denoted as A) | 12.2 |  |
| CCC(CC)[C@H]1C(=O)N(C)[C@H](C(=O)N(C)C)CC(=O)N(C)[C@@H](COC)C(=O)N[C@@H]([C@@H](C)CC)C(=O)N2CCC[C@H]2C(=O)N(C)[C@H]2C/C=C\CCN(C2=O)[C@@H](Cc2ccc(C(F)(F)F)cc2)C(=O)N(C)CC(=O)N[C@@H](CCc2ccc(Cl)c(Cl)c2)C(=O)N2C[C@H](OC(C)C)C[C@H]2C(=O)NC2(CC(C)(C)C2)C(=O)N1C [PP2639] |  | A (a compound having 10 or more and less than 20 is denoted as A) | AA (a compound having 20 or more is denoted as AA) | 81.6 |  |  |  |  | 1.1 |
| CCC[C@H]1C(=O)N[C@@H]([C@@H](C)CC)C(=O)N2CCC[C@H]2C(=O)N(C)[C@H]2C/C=C\CCN(C2=O)[C@@H](Cc2ccc(C)cc2)C(=O)N(C)CC(=O)N[C@@H](CCc2ccc(C(F)(F)F)c(OC)c2)C(=O)N2C[C@H](OCC)C[C@H]2C(=O)OC2(CCC2)C(=O)N(C)[C@@H](C2CCCC2)C(=O)N(C)[C@H](C(=O)N(C)C)CC(=O)N1C [PP3386] | 0.66 | B (a compound having 3 or more and less than 10 is denoted as B) | A (a compound having 10 or more and less than 20 is denoted as A) | 10.6 |  |  |  |  |  |
| C#CC[C@H]1C(=O)N[C@@H]([C@@H](C)CC)C(=O)N(C2CC2)CC(=O)N(C)[C@H]2C/C=C\CCN(C2=O)[C@@H](Cc2ccc(C)cc2)C(=O)N(C)CC(=O)N[C@@H](CCc2ccc(C(F)(F)F)c(OC)c2)C(=O)N2C[C@H](OCC)C[C@H]2C(=O)OC2(CCC2)C(=O)N(C)[C@@H](C2CCCC2)C(=O)N(C)[C@H](C(=O)N(C)C)CC(=O)N1C [PP3390] | 0.69 | B (a compound having 3 or more and less than 10 is denoted as B) | A (a compound having 10 or more and less than 20 is denoted as A) | 22.8 |  |  |  |  |  |
| CCO[C@@H]1C[C@H]2C(=O)NC3(CCC3)C(=O)N(C)[C@@H](C3CCCC3)C(=O)N(C)[C@H](C(=O)N(C)C)CC(=O)N(C)[C@@H](CC3CCCC3)C(=O)N[C@@H]([C@@H](C)CC)C(=O)N(C)CC(=O)N(C)[C@H]3C/C=C\CCN(C3=O)[C@@H](Cc3ccc(F)cc3)C(=O)N(C)CC(=O)N[C@@H](CCc3ccc4sccc4c3)C(=O)N2C1 [PP1390] |  |  |  |  | 1.1 | A (a compound having 10 or more and less than 20 is denoted as A) | A (a compound having 10 or more and less than 20 is denoted as A) | 305 |  |
